“And” between values parts separate entries of the source, which are not always exact repeats. Equal entries are not always repeated. Toxic doses and inconclusive results are not listed.
Test system: L1210 leukemia ip in BDF1 mice, survival T/C
Assay: NCI In Vivo Anticancer Drug Screen. Data for tumor model L1210 Leukemia (intraperitoneal) in B6D2F1 (BDF1) mice
Conditions: endpoint: mean survival time, higher = longer survival
Method in brief: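 Ratio derived from survival: compound-dosed mice over vehicle-dosed mice, all bearing a transplantable tumor.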

[1] = dose: 100.0 mg/kg/injection, schedule: Q04DX003 (ip), vehicle: Klucel (hydroxypropylcellulose) (HPC)
[2] = dose: 200.0 mg/kg/injection, schedule: Q04DX003 (ip), vehicle: Klucel (hydroxypropylcellulose) (HPC)
[3] = dose: 400.0 mg/kg/injection, schedule: Q04DX003 (ip), vehicle: Klucel (hydroxypropylcellulose) (HPC)
[4] = dose: 50.0 mg/kg/injection, schedule: Q01DX009 (ip), vehicle: Klucel (hydroxypropylcellulose) (HPC)
[5] = dose: 100.0 mg/kg/injection, schedule: Q01DX009 (ip), vehicle: Klucel (hydroxypropylcellulose) (HPC)
[6] = dose: 200.0 mg/kg/injection, schedule: Q01DX009 (ip), vehicle: Klucel (hydroxypropylcellulose) (HPC)
[7] = dose: 400.0 mg/kg/injection, schedule: Q01DX009 (ip), vehicle: Klucel (hydroxypropylcellulose) (HPC)
[8] = dose: 100.0 mg/kg/injection, schedule: Q01DX001 (ip), vehicle: carboxymethylcellulose (CMC)
[9] = dose: 200.0 mg/kg/injection, schedule: Q01DX001 (ip), vehicle: carboxymethylcellulose (CMC)
[10] = dose: 400.0 mg/kg/injection, schedule: Q01DX001 (ip), vehicle: carboxymethylcellulose (CMC)
[11] = dose: 100.0 mg/kg/injection, schedule: Q01DX009 (ip), vehicle: saline
[12] = dose: 100.0 mg/kg/injection, schedule: Q04DX003 (ip), vehicle: saline
[13] = dose: 200.0 mg/kg/injection, schedule: Q04DX003 (ip), vehicle: saline
[14] = dose: 100.0 mg/kg/injection, schedule: Q01DX001 (ip), vehicle: saline
[15] = dose: 100.0 mg/kg/injection, schedule: Q01DX001 (ip), vehicle: other
[16] = dose: 200.0 mg/kg/injection, schedule: Q01DX001 (ip), vehicle: other
[17] = dose: 200.0 mg/kg/injection, schedule: Q01DX001 (ip), vehicle: saline

With `Clc1ccc(COCc2ccccc2COCc2ccc(Cl)cc2Cl)c(Cl)c1` the T/C [1] was 93 % of control, the T/C [2] was 96 % of control and the T/C [3] was 88 % of control.

For `CCOC(=O)c1c(C)c2c(n1C)CCCC2O` (configuration not stated), the T/C (dose: 100.0 mg/kg/injection, schedule: Q04DX003 (ip), vehicle: carboxymethylcellulose (CMC)) was 101 % of control, the T/C (dose: 200.0 mg/kg/injection, schedule: Q04DX003 (ip), vehicle: carboxymethylcellulose (CMC)) was 98 % of control and the T/C (dose: 400.0 mg/kg/injection, schedule: Q04DX003 (ip), vehicle: carboxymethylcellulose (CMC)) was 95 % of control.

In the case of `CN(C)c1ccc(Cc2ccc(N(C)C)cc2[N+](=O)[O-])c([N+](=O)[O-])c1`, the T/C [4] is reported as 100 % of control, the T/C [5] is reported as 98 % of control and 92 % of control and the T/C [1] is reported as 101 % of control and 102 % of control. For the same molecule, the T/C [6] was 97 % of control and 101 % of control, the T/C [2] was 102 % of control and 104 % of control and the T/C [7] was 101 % of control and 92 % of control. For the same molecule, the T/C [3] was 98 % of control and 105 % of control.

In the case of `CC1(C)N=C(N)N=C(N)N1c1ccc(OCCCc2ccccc2)c(N)c1`, the T/C (dose: 25.0 mg/kg/injection, schedule: Q04DX003 (ip), vehicle: saline with Tween-80) is reported as 100 % of control and the T/C (dose: 50.0 mg/kg/injection, schedule: Q04DX003 (ip), vehicle: saline with Tween-80) is reported as 96 % of control.

With `CN(C)C1c2cc(Cl)ccc2-c2c(N)cc(Cl)cc21` (configuration not stated) the T/C (dose: 50.0 mg/kg/injection, schedule: Q01DX001 (ip), vehicle: carboxymethylcellulose (CMC)) was 95 % of control, the T/C [8] was 98 % of control and the T/C [9] was 98 % of control. The T/C [10] was 93 % of control.

In the case of `Nc1cc(SC(c2ccccc2)c2ccccc2)c([N+](=O)[O-])c(N)n1`, the T/C (dose: 100.0 mg/kg/injection, schedule: Q01DX001 (ip), vehicle: saline with Tween-80) is reported as 92 % of control, the T/C (dose: 200.0 mg/kg/injection, schedule: Q01DX001 (ip), vehicle: saline with Tween-80) is reported as 101 % of control and the T/C (dose: 400.0 mg/kg/injection, schedule: Q01DX001 (ip), vehicle: saline with Tween-80) is reported as 95 % of control.

For `CCCC/C(C)=N/Nc1ccc([N+](=O)[O-])cc1[N+](=O)[O-]`, the T/C (dose: 12.5 mg/kg/injection, schedule: Q04DX002 (ip), vehicle: saline with Tween-80) was 98 % of control, the T/C (dose: 25.0 mg/kg/injection, schedule: Q04DX002 (ip), vehicle: saline with Tween-80) was 106 % of control and the T/C (dose: 50.0 mg/kg/injection, schedule: Q04DX002 (ip), vehicle: saline with Tween-80) was 98 % of control.

In the case of `CC1(C#N)c2ccccc2C=CN1C(=O)c1ccccc1` (configuration not stated), the T/C [5] is reported as 97 % of control, the T/C [6] is reported as 95 % of control and the T/C [7] is reported as 92 % of control.

For `CCCCN1c2ccccc2NP1(=O)c1ccccc1` (configuration not stated), the T/C (dose: 100.0 mg/kg/injection, schedule: Q04DX003 (ip), vehicle: saline with Tween-80) was 94 % of control, the T/C (dose: 200.0 mg/kg/injection, schedule: Q04DX003 (ip), vehicle: saline with Tween-80) was 96 % of control and the T/C (dose: 400.0 mg/kg/injection, schedule: Q04DX003 (ip), vehicle: saline with Tween-80) was 97 % of control.

`CC12CCCC(=O)C1CC/C(=C\c1ccco1)C2=O` (configuration not stated) was tested, and the T/C [11] was 109 % of control, the T/C [12] was 102 % of control and the T/C (dose: 200.0 mg/kg/injection, schedule: Q01DX009 (ip), vehicle: saline) was 98 % of control. For the same molecule, the T/C [13] was 104 % of control, the T/C (dose: 400.0 mg/kg/injection, schedule: Q01DX009 (ip), vehicle: saline) was 114 % of control and the T/C (dose: 400.0 mg/kg/injection, schedule: Q04DX003 (ip), vehicle: saline) was 104 % of control.

For `CCCCC(=O)N/N=C/c1ccc(Cl)cc1Cl`, the T/C [14] was 91 % of control.

With `Cn1c(O)c(O)c(=O)n(C)c1=O` the T/C [4] was 101 % of control, the T/C [5] was 98 % of control and the T/C [6] was 88 % of control.

`Nc1ncnc2c1ccn2Cc1ccccc1` was tested, and the T/C (dose: 50.0 mg/kg/injection, schedule: Q01DX001 (ip), vehicle: other) was 111 % of control, the T/C [15] was 97 % of control and the T/C [16] was 97 % of control. For the same molecule, the T/C (dose: 400.0 mg/kg/injection, schedule: Q01DX001 (ip), vehicle: other) was 103 % of control.

With `CCN(C(=O)c1ccccc1Cl)C(c1ccco1)P(=O)(c1ccccc1)c1ccccc1` (configuration not stated) the T/C (dose: 100.0 mg/kg/injection, schedule: Q04DX002 (ip), vehicle: saline with Tween-80) was 93 % of control, the T/C (dose: 200.0 mg/kg/injection, schedule: Q04DX002 (ip), vehicle: saline with Tween-80) was 86 % of control and the T/C (dose: 400.0 mg/kg/injection, schedule: Q04DX002 (ip), vehicle: saline with Tween-80) was 117 % of control.

In the case of `ClC1C2CC3C(C2)C13` (configuration not stated), the T/C [8] is reported as 95 % of control, the T/C [9] is reported as 95 % of control and the T/C [10] is reported as 95 % of control.

For `CC(=O)NCC1(c2ccccc2)CCN(CCCC(=O)c2ccc(F)cc2)CC1`, the T/C (dose: 1.56 mg/kg/injection, schedule: Q03HX024 (ip), vehicle: saline) was 94 % of control, the T/C (dose: 3.12 mg/kg/injection, schedule: Q03HX024 (ip), vehicle: saline) was 98 % of control and the T/C (dose: 4.1 mg/kg/injection, schedule: Q01DX009 (ip), vehicle: saline) was 96 % of control. The T/C (dose: 6.25 mg/kg/injection, schedule: Q01DX009 (ip), vehicle: saline) was 98 % of control, the T/C (dose: 8.2 mg/kg/injection, schedule: Q01DX009 (ip), vehicle: saline) was 96 % of control and the T/C (dose: 12.5 mg/kg/injection, schedule: Q01DX009 (ip), vehicle: saline) was 102 % of control. The T/C (dose: 12.5 mg/kg/injection, schedule: Q04DX003 (ip), vehicle: saline) was 100 % of control, the T/C (dose: 16.5 mg/kg/injection, schedule: Q01DX009 (ip), vehicle: saline) was 89 % of control and the T/C (dose: 18.75 mg/kg/injection, schedule: Q01DX001 (ip), vehicle: saline) was 100 % of control. For the same molecule, the T/C (dose: 25.0 mg/kg/injection, schedule: Q01DX009 (ip), vehicle: saline) was 96 % of control, the T/C (dose: 25.0 mg/kg/injection, schedule: Q03HX024 (ip), vehicle: saline) was 86 % of control and the T/C (dose: 25.0 mg/kg/injection, schedule: Q04DX003 (ip), vehicle: saline) was 100 % of control and 101 % of control (2×). The T/C (dose: 33.0 mg/kg/injection, schedule: Q01DX009 (ip), vehicle: saline) was 86 % of control, the T/C (dose: 37.5 mg/kg/injection, schedule: Q01DX001 (ip), vehicle: saline) was 96 % of control and the T/C (dose: 50.0 mg/kg/injection, schedule: Q01DX009 (ip), vehicle: saline) was 109 % of control. The T/C (dose: 50.0 mg/kg/injection, schedule: Q04DX003 (ip), vehicle: saline) was 101 % of control and 108 % of control and 118 % of control, the T/C (dose: 66.0 mg/kg/injection, schedule: Q01DX009 (ip), vehicle: saline) was 91 % of control and the T/C (dose: 75.0 mg/kg/injection, schedule: Q01DX001 (ip), vehicle: saline) was 96 % of control. For the same molecule, the T/C [11] was 107 % of control, the T/C [12] was 103 % of control and the T/C (dose: 150.0 mg/kg/injection, schedule: Q01DX001 (ip), vehicle: saline) was 91 % of control. For the same molecule, the T/C [13] was 113 % of control.

For `O=C(Nc1cc([N+](=O)[O-])ccc1F)Nc1ccccc1C(F)(F)F`, the T/C [1] was 96 % of control, the T/C [2] was 94 % of control and the T/C [3] was 91 % of control.

For `CCCCN(C)N=Nc1c(Cl)cc(Cl)cc1C(N)=O`, the T/C [15] was 106 % of control, the T/C [1] was 106 % of control and the T/C [16] was 107 % of control. For the same molecule, the T/C [6] was 95 % of control, the T/C (dose: 264.0 mg/kg/injection, schedule: Q01DX001 (ip), vehicle: Klucel (hydroxypropylcellulose) (HPC)) was 114 % of control and the T/C (dose: 400.0 mg/kg/injection, schedule: Q01DX001 (ip), vehicle: Klucel (hydroxypropylcellulose) (HPC)) was 124 % of control. The T/C [3] was 181 % of control.

For `CN1CCCCCC(=N\O)/C(=N/O)CCCCC1`, the T/C (dose: 50.0 mg/kg/injection, schedule: Q01DX001 (ip), vehicle: saline) was 101 % of control, the T/C [14] was 103 % of control and the T/C [17] was 100 % of control.

`Cc1csc2ccc([N+](=O)[O-])cc12` was tested, and the T/C [14] was 106 % of control, the T/C [17] was 101 % of control and the T/C (dose: 400.0 mg/kg/injection, schedule: Q01DX001 (ip), vehicle: saline) was 101 % of control.

With `CC(C)(C)NSc1nc2ccccc2s1` the T/C (dose: 50.0 mg/kg/injection, schedule: Q01DX009 (ip), vehicle: saline with Tween-80) was 97 % of control, the T/C (dose: 100.0 mg/kg/injection, schedule: Q01DX009 (ip), vehicle: saline with Tween-80) was 94 % of control and the T/C (dose: 200.0 mg/kg/injection, schedule: Q01DX009 (ip), vehicle: saline with Tween-80) was 98 % of control.
